Series [1] is described as follows: Fluorescence of free probe prior to binding to a protein tag. The class given is physicochemical.
Series [2] concerns CLIP protein tags. The experiment in a line: Fluorescence activation of probe after incubation with corresponding protein tag (CLIP). The series is classed as biochemical. As to conditions: probe 5 μM, protein tag 10 μM, 37° C., 1 hr. The method, then:
Probes were mixed with corresponding protein tags to obtain mixed samples, in which the final probe concentration was 5 μM, and the final protein tag concentration was 10 μM. The mixed samples were incubated 37° C. for 1 hr, fluorescence spectrophotometer was used to detect the change in fluorescence intensity, and the results are shown in Table 1.
From the quantum yield of probe bound to protein tag, after reacting with the protein tags, the probes of the Examples could be detected to have significant signal enhancement in corresponding excitation transmission channels, the fluorescence activation multiple reached several hundreds to a thousand or more, and the brightness was high, which illustrates that after the probes of the Examples are bound to the protein tags, fluorescence of the probes can be activated, and the probes have good fluorescent molecular switching properties. In contrast, though the fluorescence of the reference probes could also be activated, the quantum yield of activated fluorescence was very low, and the brightness was very poor. In particular, in view of comparison results between probe 98 and reference probe 99, probe 101 and reference probe 102, probe 103 and reference probe 104, probe 105 and reference probe 106, probe 107 and reference probe 108, probe 109 and reference probe 110, probe 111 and reference probe 112, probe 114 and reference probe 115, probe 117 and reference probe 118, probe 120 and reference probe 121 in Table 1, for the same fluorescent dye, when the ligand is connected to the electron donor part of the fluorescent dye, the fluorescence activation brightness of the probe is much higher than the reference probe in which ligand is connected to the electron acceptor part of the fluorescent dye.

Series [3] in a line: Viscosity responsiveness: fluorescence emission spectra of probes in glycerol and methanol. As to conditions: for Emission wavelength: excited at maximum excitation wavelength of each probe; for Fluorescence ratio in glycerol to methanol: probe 1×10^−5 M. The class given is physicochemical. In outline: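 Each probe, from a 1×10^−2 M DMSO stock, was diluted to a final 1×10^−5 M in glycerol and in methanol. Fluorescence emission spectra were then recorded under identical conditions at each probe's maximum excitation wavelength.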

The target in series [4] is T1, SNAP protein tags (Homo sapiens, UniProt P16455, A127T/A154D/C150Q/C62A/E30R/G131K/G132T/G153L/K125A/K32I/L33F/M134L/N157G/Q115S/Q116H/R128A/R135S/S151G/S152D/S159E).
T1 sequence (P16455 1-182 E30R/K32I/L33F/C62A/Q115S/Q116H/K125A/A127T/R128A/G131K/G132T/M134L/R135S/C150Q/S151G/S152D/G153L/A154D/N157G/S159E): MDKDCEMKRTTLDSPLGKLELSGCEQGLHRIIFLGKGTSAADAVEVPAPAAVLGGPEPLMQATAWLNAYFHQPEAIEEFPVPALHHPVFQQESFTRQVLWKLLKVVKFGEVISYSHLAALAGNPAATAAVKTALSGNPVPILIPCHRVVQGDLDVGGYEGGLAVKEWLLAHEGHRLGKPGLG
The experiment in a line: Fluorescence activation of probe after incubation with corresponding protein tag (SNAP). The class given is biochemical. As to conditions: probe 5 μM, protein tag 10 μM, 37° C., 1 hr. In outline: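 Probe (5 μM final) mixed with CLIP or SNAP protein tag (10 μM final) and incubated 1 hr at 37° C. Fluorescence intensity change measured by fluorescence spectrophotometer, with quantum yield of tag-bound probe determined.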

Some results are limits rather than exact numbers.

In the case of `CN(CCOC(=O)NCc1ccc(COc2nccc(N)n2)cc1)c1ccc(/C=C(\C#N)C(=O)OC(C)(C)C)cc1` [probe 7], the “Quantum yield of free probe” value in series [1] is reported as less than 0.001. Besides, in series [2], the Fluorescence activation multiple worked out at 1502 and the “Quantum yield of probe bound to protein tag” value (“Quantum yield of probe bound” below) worked out at 0.23. Moreover, in series [3], the Emission wavelength came out at 480 nm and the “Fluorescence ratio in glycerol to methanol” value (from here on “Fluorescence ratio”) was determined as 1455.

Consider `CN(CCOC(=O)NCc1ccc(COc2nccc(N)n2)cc1)c1ccc(/C=C(\C#N)c2nc3ccccc3o2)cc1` [probe 8], for which the “Quantum yield of free probe” value in series [1] came out at 0.0018. Further, in series [2], the Fluorescence activation multiple is listed as 68 and the “Quantum yield of probe bound” value was found to be 0.12. In addition, in series [3], the Emission wavelength was found to be 510 nm and the “Fluorescence ratio” value is 320.

As to `CN(CCOC(=O)NCc1ccc(COc2nccc(N)n2)cc1)c1ccc(/C=C(\C#N)c2nc3ccccc3s2)cc1` [probe 9], in series [1], the “Quantum yield of free probe” value is less than 0.001. For the same compound, in series [2], the Fluorescence activation multiple was determined as 745 and the “Quantum yield of probe bound” value is given as 0.21. Further, in series [3], the Emission wavelength turned out to be 531 nm and the “Fluorescence ratio” value came out at 851.

In the case of `CN1C(=O)/C(=C/c2ccc(N(C)CCOC(=O)NCc3ccc(COc4nccc(N)n4)cc3)cc2)N=C1/C=C/c1ccccc1` [probe 17], the “Quantum yield of free probe” value in series [1] is given as less than 0.001. Further, in series [2], the Fluorescence activation multiple is on record as 498 and the “Quantum yield of probe bound” value is recorded as 0.15. For the same compound, in series [3], the Emission wavelength was 580 nm and the “Fluorescence ratio” value is given as 402.

As for `CN(CCOC(=O)NCc1ccc(COc2nccc(N)n2)cc1)c1ccc(C2=C(C#N)C(=C(C#N)C#N)OC2(C)C)cc1` [probe 20], in series [1], the “Quantum yield of free probe” value is less than 0.001. Besides, in series [2], the Fluorescence activation multiple was 398 and the “Quantum yield of probe bound” value is 0.32. For the same compound, in series [3], the Emission wavelength was 535 nm and the “Fluorescence ratio” value amounted to 341.

For `CN(CCOC(=O)NCc1ccc(COc2nccc(N)n2)cc1)c1cc2sc(/C=C(\C#N)C(=O)OC(C)(C)C)cc2s1` [probe 27], the “Quantum yield of free probe” value in series [1] is less than 0.001. Moreover, in series [2], the Fluorescence activation multiple worked out at 665 and the “Quantum yield of probe bound” value was 0.39. Further, in series [3], the Emission wavelength was 555 nm and the “Fluorescence ratio” value worked out at 1134.

Consider `CN(CCOC(=O)NCc1ccc(COc2nccc(N)n2)cc1)c1cc2sc(/C=C(\C#N)c3nc4ccccc4o3)cc2s1` [probe 28], for which the “Quantum yield of free probe” value in series [1] was less than 0.001. In series [2], the Fluorescence activation multiple was determined as 551 and the “Quantum yield of probe bound” value stood at 0.31. In addition, in series [3], the Emission wavelength came out at 590 nm and the “Fluorescence ratio” value turned out to be 1132.

Consider `CN(CCOC(=O)NCc1ccc(COc2nccc(N)n2)cc1)c1cc2sc(/C=C(\C#N)c3nc4ccccc4s3)cc2s1` [probe 29], for which the “Quantum yield of free probe” value in series [1] is on record as less than 0.001. In series [2], the Fluorescence activation multiple was found to be 621 and the “Quantum yield of probe bound” value was found to be 0.33. Besides, in series [3], the Emission wavelength was found to be 610 nm and the “Fluorescence ratio” value worked out at 998.

For `CN(CCOC(=O)NCc1ccc(COc2nccc(N)n2)cc1)c1ccc2cc(/C=C(\C#N)C(=O)OC(C)(C)C)sc2c1` [probe 34], the “Quantum yield of free probe” value in series [1] is less than 0.001. In addition, in series [2], the Fluorescence activation multiple amounted to 857 and the “Quantum yield of probe bound” value amounted to 0.48. Also, in series [3], the Emission wavelength is on record as 570 nm and the “Fluorescence ratio” value is 1774.

Take `CN(CCOC(=O)NCc1ccc(COc2nccc(N)n2)cc1)c1ccc2nc(/C=C(\C#N)C(=O)OC(C)(C)C)oc2c1` [probe 45]: the “Quantum yield of free probe” value in series [1] is less than 0.001. Moreover, in series [2], the Fluorescence activation multiple was 958 and the “Quantum yield of probe bound” value amounted to 0.29. Besides, in series [3], the Emission wavelength was 603 nm and the “Fluorescence ratio” value turned out to be 752.

As for `CN(CCOC(=O)NCc1ccc(COc2nccc(N)n2)cc1)c1ccc2nc(/C=C(\C#N)C(=O)OC(C)(C)C)sc2c1` [probe 53], in series [1], the “Quantum yield of free probe” value is on record as less than 0.001. In series [2], the Fluorescence activation multiple was determined as 579 and the “Quantum yield of probe bound” value is given as 0.18. In addition, in series [3], the Emission wavelength amounted to 625 nm and the “Fluorescence ratio” value was 401.

With `CN(CCOC(=O)NCc1ccc(COc2nccc(N)n2)cc1)c1ccc(C#C/C=C(\C#N)C(=O)OC(C)(C)C)cc1` [probe 57], the “Quantum yield of free probe” value in series [1] is listed as less than 0.001. For the same compound, in series [2], the Fluorescence activation multiple came to 1026 and the “Quantum yield of probe bound” value is 0.31. Besides, in series [3], the Emission wavelength is on record as 566 nm and the “Fluorescence ratio” value is given as 762.

As to `COCCNC(=O)/C(C#N)=C/c1ccc(-c2ccc(N(C)CCOC(=O)NCc3ccc(COc4nccc(N)n4)cc3)cc2)s1` [probe 69], the “Quantum yield of free probe” value in series [1] is reported as less than 0.001. Moreover, in series [2], the Fluorescence activation multiple was determined as 491 and the “Quantum yield of probe bound” value came to 0.27. Also, in series [3], the Emission wavelength amounted to 620 nm and the “Fluorescence ratio” value stood at 217.

For the compound `COCCNC(=O)/C(C#N)=C/c1cc2cc3sc(N(C)CCOC(=O)NCc4ccc(COc5nccc(N)n5)cc4)cc3cc2s1` [probe 72], the “Quantum yield of free probe” value in series [1] is reported as 0.001. Besides, in series [2], the Fluorescence activation multiple is 486 and the “Quantum yield of probe bound” value was determined as 0.47. Moreover, in series [3], the Emission wavelength came out at 640 nm and the “Fluorescence ratio” value is 268.

For the compound `CN(CCOC(=O)NCc1ccc(COc2nccc(N)n2)cc1)c1ccc(-c2ccc(/C=C(\C#N)C(=O)OC(C)(C)C)s2)s1` [probe 80], in series [1], the “Quantum yield of free probe” value was 0.0011. In series [2], the Fluorescence activation multiple came out at 349 and the “Quantum yield of probe bound” value was found to be 0.38. In addition, in series [3], the Emission wavelength is recorded as 655 nm and the “Fluorescence ratio” value came out at 218.

As for `CN(CCOC(=O)NCc1ccc(COc2nccc(N)n2)cc1)c1ccc(-c2ccc(/C=C(\C#N)c3nc4ccccc4o3)s2)s1` [probe 81], the “Quantum yield of free probe” value in series [1] is recorded as less than 0.001. In series [2], the Fluorescence activation multiple is recorded as 391 and the “Quantum yield of probe bound” value is on record as 0.29. Also, in series [3], the Emission wavelength amounted to 672 nm and the “Fluorescence ratio” value was 235.

Regarding `CN(CCOC(=O)NCc1ccc(COc2nccc(N)n2)cc1)c1ccc(-c2ccc(/C=C(\C#N)c3nc4ccccc4s3)s2)s1` [probe 82], in series [1], the “Quantum yield of free probe” value is given as less than 0.001. In series [2], the Fluorescence activation multiple worked out at 321 and the “Quantum yield of probe bound” value is recorded as 0.21. In series [3], the Emission wavelength was determined as 681 nm and the “Fluorescence ratio” value was 241.

Take `CC(C)(C)OC(=O)/C(C#N)=C/c1ccc2c(c1)SCCN2CCOC(=O)NCc1ccc(COc2nccc(N)n2)cc1` [probe 84]: in series [1], the “Quantum yield of free probe” value is listed as less than 0.001. Further, in series [2], the Fluorescence activation multiple turned out to be 431 and the “Quantum yield of probe bound” value worked out at 0.16. Also, in series [3], the Emission wavelength came out at 515 nm and the “Fluorescence ratio” value was 121.

Consider `CC1=CC(C)(C)N(CCOC(=O)NCc2ccc(COc3nccc(N)n3)cc2)c2ccc(/C=C(\C#N)C(=O)OC(C)(C)C)cc21` [probe 90], for which the “Quantum yield of free probe” value in series [1] is recorded as less than 0.001. Moreover, in series [2], the Fluorescence activation multiple was determined as 541 and the “Quantum yield of probe bound” value came out at 0.28. Besides, in series [3], the Emission wavelength is 575 nm and the “Fluorescence ratio” value is given as 109.

For `CC1=CC(C)(C)N(CCOC(=O)NCc2ccc(COc3nccc(N)n3)cc2)c2ccc(/C=C(\C#N)c3nc4ccccc4s3)cc21` [probe 91], in series [1], the “Quantum yield of free probe” value is 0.0013. Moreover, in series [2], the Fluorescence activation multiple was determined as 192 and the “Quantum yield of probe bound” value was determined as 0.24. Also, in series [3], the Emission wavelength worked out at 612 nm and the “Fluorescence ratio” value came out at 163.

Take `CN(CCOC(=O)NCc1ccc(COc2nc(N)nc3[nH]cnc23)cc1)c1ccc(-c2ccc(/C=C(\C#N)C(=O)O)s2)s1` [probe 120]: in series [1], the “Quantum yield of free probe” value is given as less than 0.001. Besides, in series [4], the Fluorescence activation multiple was determined as 469 and the “Quantum yield of probe bound” value worked out at 0.42. Besides, in series [3], the Emission wavelength amounted to 656 nm and the “Fluorescence ratio” value amounted to 421.

These data come from US11209437B2, “Fluorescent probe and preparation method and use thereof” (Fluorescence Diagnosis (shanghai) Biotech Company Ltd., priority 2016, dated 2021).
